From ChEMBL document CHEMBL1144574, “Synthesis and identification of novel oxa-steroids as progesterone receptor antagonists” (Bioorg Med Chem Lett, 2007)

Experiments:
Progesterone receptor = molecular target: T1, Progesterone receptor (Homo sapiens, UniProt P06401); assay: Antagonist activity at progesterone receptor in human T47D cells assessed as inhibition of progesterone-induced alkaline phosphatase activity; assay type: functional, cell-based
T1 sequence (P06401 whole entry): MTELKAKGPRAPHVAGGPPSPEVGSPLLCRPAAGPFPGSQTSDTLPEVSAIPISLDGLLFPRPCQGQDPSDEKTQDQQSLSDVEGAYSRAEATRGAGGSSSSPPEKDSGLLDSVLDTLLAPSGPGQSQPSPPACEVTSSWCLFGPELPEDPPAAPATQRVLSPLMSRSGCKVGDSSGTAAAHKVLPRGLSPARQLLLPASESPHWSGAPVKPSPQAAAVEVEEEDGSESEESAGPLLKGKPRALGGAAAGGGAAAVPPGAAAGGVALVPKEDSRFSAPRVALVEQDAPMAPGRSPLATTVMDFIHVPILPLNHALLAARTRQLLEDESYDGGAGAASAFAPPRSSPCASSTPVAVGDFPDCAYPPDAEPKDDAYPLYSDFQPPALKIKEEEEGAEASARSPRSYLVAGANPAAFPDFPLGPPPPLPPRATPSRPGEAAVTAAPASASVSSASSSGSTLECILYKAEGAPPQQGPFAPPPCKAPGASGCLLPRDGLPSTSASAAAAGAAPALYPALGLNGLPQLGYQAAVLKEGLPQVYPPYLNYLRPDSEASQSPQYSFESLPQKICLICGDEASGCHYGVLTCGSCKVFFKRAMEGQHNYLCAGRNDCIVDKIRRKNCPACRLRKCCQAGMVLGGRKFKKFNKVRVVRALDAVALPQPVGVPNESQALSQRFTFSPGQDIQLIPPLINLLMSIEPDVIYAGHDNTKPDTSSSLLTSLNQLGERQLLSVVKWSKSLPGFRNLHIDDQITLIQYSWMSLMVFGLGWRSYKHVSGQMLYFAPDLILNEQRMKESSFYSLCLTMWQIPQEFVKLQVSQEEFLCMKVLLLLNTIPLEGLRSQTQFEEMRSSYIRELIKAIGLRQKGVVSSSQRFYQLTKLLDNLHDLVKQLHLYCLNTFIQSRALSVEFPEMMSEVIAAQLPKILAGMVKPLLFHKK

Glucocorticoid receptor = molecular target: T2, Glucocorticoid receptor (Homo sapiens, UniProt P04150); assay: Antagonist activity at glucocorticoid receptor in human A549 cells assessed as inhibition of corticoid-induced GRE-linked luciferase reporter gene activity; assay type: functional, cell-based
T2 sequence (P04150 whole entry): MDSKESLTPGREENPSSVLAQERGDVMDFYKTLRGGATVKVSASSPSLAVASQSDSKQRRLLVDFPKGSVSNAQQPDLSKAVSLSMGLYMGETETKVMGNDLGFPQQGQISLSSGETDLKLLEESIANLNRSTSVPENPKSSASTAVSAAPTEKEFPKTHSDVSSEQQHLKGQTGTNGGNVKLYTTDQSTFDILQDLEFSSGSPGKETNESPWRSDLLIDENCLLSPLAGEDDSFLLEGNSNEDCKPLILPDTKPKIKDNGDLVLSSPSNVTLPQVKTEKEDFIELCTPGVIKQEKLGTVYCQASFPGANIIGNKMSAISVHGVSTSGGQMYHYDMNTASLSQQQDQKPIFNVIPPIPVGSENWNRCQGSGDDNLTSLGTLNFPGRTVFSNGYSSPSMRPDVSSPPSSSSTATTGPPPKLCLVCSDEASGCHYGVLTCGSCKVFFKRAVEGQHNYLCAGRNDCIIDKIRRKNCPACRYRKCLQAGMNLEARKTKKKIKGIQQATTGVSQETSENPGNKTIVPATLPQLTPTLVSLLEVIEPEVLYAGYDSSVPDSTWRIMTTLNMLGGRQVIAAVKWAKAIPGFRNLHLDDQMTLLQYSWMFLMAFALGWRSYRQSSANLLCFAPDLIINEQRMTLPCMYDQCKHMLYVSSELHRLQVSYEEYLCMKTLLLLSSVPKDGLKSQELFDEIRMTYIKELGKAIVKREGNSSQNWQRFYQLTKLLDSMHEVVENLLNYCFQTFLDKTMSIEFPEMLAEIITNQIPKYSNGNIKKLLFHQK

Homo sapiens = species: Homo sapiens; assay: Selectivity for human progesterone receptor over human glucocorticoid receptor

Row | Compound | IC50 (Progesterone receptor) [nM] | IC50 (Glucocorticoid receptor) [nM] | Ratio IC50 (Homo sapiens)
1 | CN(C)c1ccc([C@H]2C[C@@]3(C)[C@@H](CC[C@@]3(O)C#CC(C)(C)O)[C@@H]3OCC4=CC(=O)CCC4=C32)cc1 | > 1000 | 558 | –
2 | CN(C)c1ccc([C@H]2C[C@@]3(C)[C@@H](CC[C@@]3(O)C#CC3CC3)[C@@H]3OCC4=CC(=O)CCC4=C32)cc1 | 9.6 | 33.4 | 4
3 | C#C[C@]1(O)CC[C@H]2[C@@H]3OCC4=CC(=O)CCC4=C3[C@@H](c3ccc(N(C)C)cc3)C[C@@]21C | 19 | 204 | 11
4 | CC#C[C@]1(O)CC[C@H]2[C@@H]3OCC4=CC(=O)CCC4=C3[C@@H](c3ccc(N(C)C)cc3)C[C@@]21C | 7.5 | 86.5 | 12
5 | CN(C)c1ccc([C@H]2C[C@@]3(C)[C@@H](CC[C@@]3(O)C#CC(F)(F)F)[C@@H]3OCC4=CC(=O)CCC4=C32)cc1 | 9.3 | 55.5 | 6
6 | CN(C)c1ccc([C@H]2C[C@@]3(C)[C@@H](CC[C@@]3(O)C#CC(C)(C)C)[C@@H]3OCC4=CC(=O)CCC4=C32)cc1 | 185 | 167 | 1
7 | CN(C)c1ccc([C@H]2C[C@@]3(C)[C@@H](CC[C@@]3(O)C#Cc3ccccc3)[C@@H]3OCC4=CC(=O)CCC4=C32)cc1 | 1.4 | 304 | 217
8 | CN(C)CC#C[C@]1(O)CC[C@H]2[C@@H]3OCC4=CC(=O)CCC4=C3[C@@H](c3ccc(N(C)C)cc3)C[C@@]21C | > 1000 | > 3000 | –
